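Grown in 96-well plates, cells were treated for 48 hours with each compound at five concentrations. Insufficient inhibition: endpoint recorded as highest concentration tested. GI50 is the concentration that inhibits growth by half.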 Activity calls are given as the source filed them. Rule as the data show it: active = GI50 up to about 1.1 µM and inactive = higher.
Key:
Assay in all cases: NCI tumour cell line growth inhibition, 48 h
NCI-H522 = test system: NCI-H522
SF-295 = test system: SF-295
OVCAR-3 = test system: OVCAR-3
OVCAR-8 = test system: OVCAR-8
CAKI-1 = test system: CAKI-1
SK-MEL-5 = test system: SK-MEL-5
SF-539 = test system: SF-539
A498 = test system: A498
OVCAR-5 = test system: OVCAR-5
SN12C = test system: SN12C
NCI/ADR-RES = test system: NCI/ADR-RES
OVCAR-4 = test system: OVCAR-4
MDA-N = test system: MDA-N
LOX IMVI = test system: LOX IMVI
SNB-75 = test system: SNB-75
SK-MEL-28 = test system: SK-MEL-28
SF-268 = test system: SF-268
UO-31 = test system: UO-31
IGROV-1 = test system: IGROV-1
ACHN = test system: ACHN
786-0 = test system: 786-0
COLO 205 = test system: COLO 205
RPMI-8226 = test system: RPMI-8226
U-251 = test system: U-251
HCT-116 = test system: HCT-116
KM12 = test system: KM12
BT-549 = test system: BT-549
RXF 393 = test system: RXF 393
SK-OV-3 = test system: SK-OV-3
SW-620 = test system: SW-620
MDA-MB-435 = test system: MDA-MB-435
SNB-19 = test system: SNB-19
MDA-MB-231 = test system: MDA-MB-231
A549 = test system: A549
HCT-15 = test system: HCT-15
HT-29 = test system: HT-29
NCI-H460 = test system: NCI-H460
EKVX = test system: EKVX
UACC-257 = test system: UACC-257
NCI-H226 = test system: NCI-H226
DU-145 = test system: DU-145
NCI-H23 = test system: NCI-H23
T47D = test system: T47D
M14 = test system: M14
Malme-3M = test system: Malme-3M
MOLT-4 = test system: MOLT-4
HOP-62 = test system: HOP-62
HOP-92 = test system: HOP-92
TK-10 = test system: TK-10
PC-3 = test system: PC-3
SR = test system: SR
K562 = test system: K562
SK-MEL-2 = test system: SK-MEL-2
MCF7 = test system: MCF7
UACC-62 = test system: UACC-62
CCRF-CEM = test system: CCRF-CEM

Cc1cnc(Cl)nc1C(C#N)c1nc2ccccc2n1C (centres undefined)
GI50 (NCI-H522): 15.1 µM (inactive)
GI50 (SF-295): > 100 µM (inactive)
GI50 (OVCAR-3): > 100 µM (inactive)
GI50 (OVCAR-8): 38.6 µM (inactive)
GI50 (CAKI-1): 95.3 µM (inactive)
GI50 (SK-MEL-5): > 100 µM (inactive)
GI50 (SF-539): 31 µM (inactive)
GI50 (A498): > 100 µM (inactive)
GI50 (OVCAR-5): 64.3 µM (inactive)
GI50 (SN12C): > 100 µM (inactive)
GI50 (NCI/ADR-RES): 56.1 µM (inactive)
GI50 (OVCAR-4): 49.1 µM (inactive)
GI50 (MDA-N): > 100 µM (inactive)
GI50 (LOX IMVI): 34.1 µM (inactive)
GI50 (SNB-75): 10.1 µM (inactive)
GI50 (SK-MEL-28): 93.1 µM (inactive)
GI50 (SF-268): 29.9 µM (inactive)
GI50 (UO-31): > 100 µM (inactive)
GI50 (IGROV-1): 33.4 µM (inactive)
GI50 (ACHN): 66.8 µM (inactive)
GI50 (786-0): 44.4 µM (inactive)
GI50 (COLO 205): > 100 µM (inactive)
GI50 (RPMI-8226): 85.9 µM (inactive)
GI50 (U-251): 19.5 µM (inactive)
GI50 (HCT-116): 23.2 µM (inactive)
GI50 (KM12): > 100 µM (inactive)
GI50 (BT-549): > 100 µM (inactive)
GI50 (RXF 393): 58.9 µM (inactive)
GI50 (SK-OV-3): > 100 µM (inactive)
GI50 (SW-620): > 100 µM (inactive)
GI50 (MDA-MB-435): > 100 µM (inactive)
GI50 (SNB-19): 41.6 µM (inactive)
GI50 (MDA-MB-231): > 100 µM (inactive)
GI50 (A549): 62.5 µM (inactive)
GI50 (HCT-15): > 100 µM
GI50 (HT-29): 35.9 µM (inactive)
GI50 (NCI-H460): 46.1 µM (inactive)
GI50 (EKVX): 6.31 µM (inactive)
GI50 (UACC-257): > 100 µM (inactive)
GI50 (NCI-H226): > 100 µM (inactive)
GI50 (DU-145): > 100 µM (inactive)
GI50 (NCI-H23): 66.7 µM (inactive)
GI50 (T47D): 84.9 µM (inactive)
GI50 (M14): > 100 µM (inactive)
GI50 (Malme-3M): > 100 µM (inactive)
GI50 (MOLT-4): > 100 µM (inactive)
GI50 (HOP-62): 55.7 µM (inactive)
GI50 (HOP-92): > 100 µM (inactive)
GI50 (TK-10): 36 µM (inactive)

CC[C@]1(Cc2ccc(OC)c(OC)c2)[C@@H]2C[C@@H](C3OCCO3)ON2O[C@H](OC2CCCC2(c2ccccc2)c2ccccc2)[C@@H]1OC(C)=O (some centres undefined)
GI50 (NCI-H522): 15.1 µM (inactive)
GI50 (SF-295): 21.2 µM (inactive)
GI50 (OVCAR-3): 12.7 µM (inactive)
GI50 (OVCAR-8): 24.9 µM (inactive)
GI50 (CAKI-1): 32.8 µM (inactive)
GI50 (PC-3): 24.4 µM (inactive)
GI50 (SK-MEL-5): 18.5 µM (inactive)
GI50 (SF-539): 40.4 µM (inactive)
GI50 (OVCAR-5): 17.9 µM (inactive)
GI50 (SN12C): 31.3 µM (inactive)
GI50 (NCI/ADR-RES): 28.9 µM (inactive)
GI50 (MDA-N): 36.1 µM (inactive)
GI50 (LOX IMVI): 23.3 µM (inactive)
GI50 (SNB-75): 24 µM (inactive)
GI50 (SK-MEL-28): 20.5 µM (inactive)
GI50 (SR): 16.1 µM (inactive)
GI50 (SF-268): 19.9 µM (inactive)
GI50 (K562): 17.7 µM (inactive)
GI50 (UO-31): 20.6 µM (inactive)
GI50 (IGROV-1): 23.3 µM (inactive)
GI50 (ACHN): 18.1 µM (inactive)
GI50 (786-0): 20 µM (inactive)
GI50 (COLO 205): 26.9 µM (inactive)
GI50 (U-251): 33.2 µM (inactive)
GI50 (HCT-116): 17.4 µM (inactive)
GI50 (KM12): 15.6 µM (inactive)
GI50 (BT-549): 25.6 µM (inactive)
GI50 (SK-OV-3): 43.1 µM (inactive)
GI50 (SW-620): 33 µM (inactive)
GI50 (MDA-MB-435): 21.5 µM (inactive)
GI50 (SNB-19): 18.1 µM (inactive)
GI50 (MDA-MB-231): 44.3 µM (inactive)
GI50 (A549): 24 µM (inactive)
GI50 (SK-MEL-2): 15.7 µM (inactive)
GI50 (HCT-15): 14.5 µM
GI50 (HT-29): 23.5 µM (inactive)
GI50 (NCI-H460): 16.1 µM (inactive)
GI50 (EKVX): 21.1 µM (inactive)
GI50 (UACC-257): 19.6 µM (inactive)
GI50 (NCI-H226): 20.6 µM (inactive)
GI50 (DU-145): 26.6 µM (inactive)
GI50 (NCI-H23): 21 µM (inactive)
GI50 (T47D): 18.7 µM (inactive)
GI50 (M14): 16.2 µM (inactive)
GI50 (MCF7): 22.5 µM (inactive)
GI50 (MOLT-4): 10.1 µM (inactive)
GI50 (HOP-62): 19.6 µM (inactive)
GI50 (UACC-62): 37.4 µM (inactive)
GI50 (TK-10): 45.3 µM (inactive)
GI50 (CCRF-CEM): 18.7 µM (inactive)
